The values that follow come from patent US20260174716A1, “CRYSTAL FORM OF ALKYL CARBOXYLIC ACID COMPOUND AND USE THEREOF” (CONSUN PHARMACEUTICAL (INNER MONGOLIA) CO. LTD, priority 2022, published 2026).

The target in one data set is T1, sGC (Homo sapiens, UniProt Q02153).
T1 construct: Minimum effective concentration required to stimulate cGMP production in LNCap cells; endogenous in cells; host or cells: LNCaP cells (no transfection described)
T1 sequence (Q02153 1-619): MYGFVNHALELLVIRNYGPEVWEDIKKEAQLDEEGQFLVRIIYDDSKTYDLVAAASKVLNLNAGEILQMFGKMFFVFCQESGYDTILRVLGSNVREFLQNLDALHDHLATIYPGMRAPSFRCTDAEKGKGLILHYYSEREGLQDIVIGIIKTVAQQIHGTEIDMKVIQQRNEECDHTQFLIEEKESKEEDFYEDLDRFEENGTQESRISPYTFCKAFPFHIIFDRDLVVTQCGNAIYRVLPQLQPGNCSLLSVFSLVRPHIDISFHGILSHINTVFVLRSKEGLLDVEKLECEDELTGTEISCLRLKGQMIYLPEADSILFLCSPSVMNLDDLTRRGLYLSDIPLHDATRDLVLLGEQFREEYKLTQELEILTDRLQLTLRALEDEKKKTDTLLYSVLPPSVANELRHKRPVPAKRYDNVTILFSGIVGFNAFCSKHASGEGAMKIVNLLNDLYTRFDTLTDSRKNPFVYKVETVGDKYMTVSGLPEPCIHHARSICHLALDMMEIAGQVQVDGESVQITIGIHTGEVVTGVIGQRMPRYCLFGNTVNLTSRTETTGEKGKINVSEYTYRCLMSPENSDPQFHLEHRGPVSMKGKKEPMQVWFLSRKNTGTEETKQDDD
T1 sequence (Q02108 1-690 partner): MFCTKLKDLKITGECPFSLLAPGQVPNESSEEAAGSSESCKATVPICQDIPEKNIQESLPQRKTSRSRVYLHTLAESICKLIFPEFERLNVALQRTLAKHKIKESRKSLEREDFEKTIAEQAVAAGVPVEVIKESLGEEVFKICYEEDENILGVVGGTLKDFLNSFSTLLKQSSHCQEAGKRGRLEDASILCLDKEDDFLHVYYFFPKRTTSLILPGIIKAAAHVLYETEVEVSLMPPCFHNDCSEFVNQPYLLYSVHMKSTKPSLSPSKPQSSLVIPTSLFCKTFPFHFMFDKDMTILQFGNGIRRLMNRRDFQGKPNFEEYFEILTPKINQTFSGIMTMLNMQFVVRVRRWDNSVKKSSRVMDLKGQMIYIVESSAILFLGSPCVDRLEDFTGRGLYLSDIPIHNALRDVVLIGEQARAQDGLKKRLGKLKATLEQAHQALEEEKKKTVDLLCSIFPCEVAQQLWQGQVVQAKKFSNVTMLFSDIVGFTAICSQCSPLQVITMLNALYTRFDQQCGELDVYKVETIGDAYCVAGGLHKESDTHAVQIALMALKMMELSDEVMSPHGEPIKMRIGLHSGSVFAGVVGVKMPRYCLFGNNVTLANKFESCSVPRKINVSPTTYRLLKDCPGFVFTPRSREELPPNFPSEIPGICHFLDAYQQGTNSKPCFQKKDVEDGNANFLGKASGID
In words: cGMP expression test based on LNCap cells (HTRF, with ODQ). Type of data set: cell-based. On the procedure:
I. CGMP Expression Test Based on InCap Cells
10 g of BSA was dissolved in 100 mL of double-distilled water (ddH2O) to obtain 10% BSA.
1 mg of ODQ powder was weighed and dissolved in 534 μL of DMSO to prepare 10 mM ODQ solution. The solution was aliquoted and stored in a −20° C. refrigerator.
• a) 50 μL of cGMP-D2 (D2-labeled cyclic guanosine monophosphate) was added to 1 mL of lysis buffer and mixed thoroughly. • b) 50 μL of anti-cGMP cryptate (Eu^3+ cryptate-labeled anti-cyclic guanosine monophosphate antibody) was added to 1 mL of lysis buffer and mixed thoroughly.
• (1) The compound was diluted to a concentration of 10 mM using DMSO. • (2) A serial dilution of the compound was performed, resulting in 10 different concentration levels of each compound. […]
• (1) cGMP-D2 was transferred to a 384-well plate at 5 μL per well. […] Centrifugation was performed at 1500 rpm for 1 minute. • (2) Incubation was carried out at room temperature for 1 hour. • (3) The plates were read using envision at 665/615 wavelengths.
• (1) cGMP standard curve: A standard curve was generated using GraphPad Prism, based on the ratio of cGMP concentration to the 665/615 wavelength values. • (2) Conversion of HTRF (homogeneous time-resolved fluorescence) ratio (665/615) to cGMP concentration: In GraphPad Prism, the HTRF ratio (665/615) was copied to the ratio column of the cGMP standard curve. […]
For orientation: Time-resolved FRET reads energy transfer from a long-lived donor to a nearby acceptor.

Data set [1] can be described thus: Solid stability test (XRPD detection of crystal form). The class given is physicochemical. An excerpt:
For samples placed under high temperature and high humidity conditions, the vial was sealed with aluminum foil punched with small holes to ensure that the samples were in full contact with the ambient air; for samples placed under strong light conditions, the vial was sealed with a threaded cap. The samples placed under different conditions were sampled and detected (XRPD) on day 5, day 10, and month 1, and the results were compared with the initial results on day 0.

Data set [2] is described as follows: In vitro hepatocyte metabolic stability, human. The class given is in vitro ADME. As to conditions: hepatocytes (cryopreserved, suspension), 0.5×10^6 cells/mL. On the procedure: (§1) • 1. Experimental objective: The aim of the study was to assess the stability of the compounds in hepatocytes of different species. • 2. Experimental steps:
(§2) A variety of 96-well precipitation plates were prepared and labeled as T0, T15, T30, T60, T90, T0-MC, T90-MC, and blank matrix, respectively. Revival medium and incubation medium were taken in advance and pre-warmed in a 37° C. water bath. Hepatocytes of different species, stored in a liquid nitrogen tank, were taken and immediately immersed in a 37° C. water bath for approximately 90 seconds. Once partially thawed, cells were transferred to centrifuge tubes containing 40 mL of revival medium, and gently inverted to resuspend the cells in the revival medium. At room temperature, cells were centrifuged at 100×g for 5 minutes. The supernatant was discarded, and the hepatocytes were resuspended in an appropriate volume of incubation medium. Viability was calculated using trypan blue staining. 198 μL of hepatocyte suspension (0.51×10^6 cells/mL) was added to pre-warmed incubation plates. For the control group, 198 μL of hepatocyte-free incubation medium was added to T0-MC and […] plates. All plates were pre-incubated for 10 minutes in a 37° C. incubator. […] All samples were mixed well and analyzed using LC/MS/MS methods.

The nature of data set [3]: In vitro hepatocyte metabolic stability, mouse. Type of data set: in vitro ADME. To be noted: hepatocytes (cryopreserved, suspension), 0.5×10^6 cells/mL. On the procedure: as §1, §2
Data set [4] can be described thus: In vitro hepatocyte metabolic stability, rat. Type of data set: in vitro ADME. To be noted: hepatocytes (cryopreserved, suspension), 0.5×10^6 cells/mL. On the procedure:
as §1, §2

Usually EC50 stands for the midpoint of the concentration-response curve. A lower EC50 goes with an effect from little substance. For `COC12CC([C@H](CC(=O)O)c3ccc(Cl)c(NC(=O)[C@H](c4ccc(Cl)cc4)[C@@H](C)C(F)(F)F)c3)(C1)C2`, the EC50 at sGC (cGMP production in LNCap cells) came to 21.2 nM. At sGC (minimum effective concentration to stimulate cGMP production in LNCap cells (greater than three times the baseline value)), this compound had an MEC of 6.93 nM. For the same compound, the Crystal form entry is on record as “Crystal form A” in data set [1] (40° C./75% RH (open), Day 5); “Crystal form A” in data set [1] (40° C./75% RH (open), Day 10); “Crystal form A” in data set [1] (40° C./75% RH (open), Month 1); “Crystal form A” in data set [1] (60° C./75% RH (open), Day 5); “Crystal form A” in data set [1] (60° C./75% RH (open), Day 10); “Crystal form A” in data set [1] (60° C./75% RH (open), Month 1). Further, the Crystal form result in data set [1] (Day 0 (initial)) is recorded as “Crystal form A”; in data set [1] (High humidity (25° C./relative humidity: 92.5%, open), Day 5), “Crystal form A”; in data set [1] (High humidity (25° C./relative humidity: 92.5%, open), Day 10), “Crystal form A”; in data set [1] (High humidity (25° C./relative humidity: 92.5%, open), Month 1), “Crystal form A”; in data set [1] (High temperature (60° C., open), Day 5), “Crystal form A”; in data set [1] (High temperature (60° C., open), Day 10) it was “Crystal form A”. Also, the Crystal form entry in data set [1] (High temperature (60° C., open), Month 1) is “Crystal form A”; in data set [1] (Strong light (5000 lx, sealed), Day 5), “Crystal form A”; in data set [1] (Strong light (5000 lx, sealed), Day 10) it was “Crystal form A”; in data set [1] (Strong light (5000 lx, sealed), Month 1), “Crystal form A”.
Usually half-life stands for how long it takes for the measured level to halve. Consider `COC12CC([C@H](CC(=O)O)c3ccc(Cl)c(NC(=O)[C@H](c4ccc(Cl)cc4)[C@@H](C)C(F)(F)F)c3)(C1)C2` [Compound of formula (I)], for which the half-life at 1 μM in data set [2] is 2.58 h; in data set [3], 1.42 h; in data set [4], 1.3 h. Besides, the results for the CLint scaled at 1 μM in data set [2] (read-out: CLint (liver)), in data set [3] (read-out: CLint (liver)) and in data set [4] (read-out: CLint (liver)) were 24.9 mL/min/kg, 193 mL/min/kg and 82.9 mL/min/kg, respectively.
